Assay results: patent US20050171203A1, “Pregabalin composition” (Pfizer Inc., priority 2003, published 2005)

How the values were obtained:
[1] = storage at 5° C.
[2] = tested on: bacteria; yeasts and molds; E. coli; test: antimicrobial efficacy testing (microbial limit test, European Pharmacopoeia 5th ed.); details: glycerol as preservative
[3] = observations on preserved pregabalin compositions (Remarks of Table 1: pH, particles, color, mold); format: physicochemical; details: sorbic acid used with pregabalin
Excerpt: Other common preservatives, such as ethanol, are unsuitable for use in pediatric formulations.
In TABLE 1, the annotations “Meets Ph. Eur.” and “Fails Ph. Eur.” refer to whether the test results meet or fail the microbial limit test as defined in the current edition of European Pharmacopoeia (5th ed., 2004): 1000 bacteria per g (max); 100 yeasts and molds per g (max); and free of E. coli.

appearance of the solution [3]	shift in pH [3]	SMILES	behaviour in solution under storage [1]	compliance with requirements of European Pharmacopoeia (5th ed., 2004) [2]
		OCC(O)CO [glycerol]	precipitated out of solution	does not comply
		O=C1NS(=O)(=O)c2ccccc21.[Na] [sodium saccharin]	remained in solution	
discoloration of the solution	5.0	C/C=C/C=C/C(=O)O [sorbic acid]		
		OC[C@@H](O)[C@H](O)[C@@H](O)CO [xylitol]	precipitated out of solution	
